pIC50: −log10 of the molar value. Where two headings read alike, the source gives them in different places.
Legend:
[1] = test system: T. gondii RPS13Δ; assay: RPS13Δ infection of interferon γ receptor knockout mice; type: in vivo, Toxoplasma gondii; conditions: mice to start 5 (Tafenoquine), 5 (JAG21)
Method: In pilot studies, herein, interferon γ receptor knockout mice that were not treated were observed following infection. At 7 and at 14 days following infection, spleen, and liver were removed and immune peroxidase stained. At 14 days a group of mice were treated with anhydrotetracycline and when a subset of these mice died, their spleen and liver were removed and immune peroxidase stained.
As in the pilot studies, this RPS13 Δ parasite also was used to infect interferon γ receptor knockout mice in a treatment study. In this separate study, groups of mice were infected with RPS13 Δ. They were treated with tafenoquine on day−1, or JAG21 for 14 days 2 h after infection, or the two together with tafenoquine on day−1 and JAG21 for the first 14 days, or with diluent only for 14 days, as described above. For the initial 14 days, no tetracycline was administered. After that time tetracycline was administered. Mice were observed each day. At the time they appeared to have substantial illness or at the termination of the experiment they were euthanized, tissues fixed in formalin and stained with hematoxylin and eosin or immunoperoxidase stained and parasite burden was assessed.

[2] = test system: Human Foreskin Fibroblast (HFF); assay: Cytotoxicity assay, WST-1 cell proliferation reagent on HFF; type: cell-based
Method: Toxicity assays used WST-1 cell proliferation reagent (Roche) as in Fomovska et al. ([2012a]). HFF were grown on a flat, clear-bottomed, black 96-well plate. Confluent HFF were treated with inhibitory compounds at concentrations of 10 and 50 μM. Compounds were diluted in IMDM-C, and 20 μL were added to each designated well, with triplicates for each condition. A gradient with 2-folddecreasing concentrations of DMSO from 10 to 0% in colorless, translucent IMDM-C was used as a control. The plate was incubated for 72 h at 37°C. Ten microlitre WST-1 reagent (Roche) were added to each well. Cells were incubated for 30–60 min. Absorbance was read using a fluorimeter at 420 nm. A higher degree of color change (and absorbance) indicated mitochondrial activity and cell viability.

[3] = test system: T. gondii RH-YFP tachyzoites; assay: In vitro challenge assay, RH strain YFP tachyzoites in HFF; type: cell-based; conditions: Toxoplasma gondii; RH-YFP tachyzoites in HFF; Figure 1A; read-out: Tachy IC50
Method: RH strain YFP Tachyzoites. Protocol was adapted from Fomovska et al. ([2012a],[b]) for HFF. HFF were cultured on a flat, clear-bottomed, black 96-well plate to 90–100% confluence. IMDM (1x, [+] glutamine, [+] 25 mM HEPES, [+] Phenol red, 10% FBS [Gibco, Denmark]) was removed and replaced with IMDM-C(1x, [+] glutamine, [+] 25 mM HEPES, [–] Phenol red, 10% FBS)[Gibco, Denmark]). RH-YFP, lysed from host cells by passing twice through a 27-gauge needle, were counted, then diluted to 32,000/mL in IMDM-C. HFF were infected with 3200 RH-YFP, then returned to 37°C, CO2 (5%) incubator for 1–2 h for infection. Various concentrations of the compounds in 20 μL IMDM-C were added to each well. There were triplicates for each condition. Controls were pyrimethamine/sulfadiazine (standard treatment), 0.1% DMSO only, HFF only, and untreated cultures of HFF infected with 2-fold dilutions of YFP expressing parasites (called “YFP gradient” to establish amount of color from known numbers of YFP expressing parasites). Cells were incubated at 37°C for 72 h. Plates were read using a fluorimeter (Synergy H4 Hybrid Reader, BioTek) to ascertain amount of relative fluorescence units (RFU) YFP, to measure parasite burden after treatment. Data were collected using Gen5 software with IC50 calculated by graphical analysis in Excel.
An initial screening assay of 10 μM, 1 μM, 100 nM, and 10 nM of the compounds was performed. Compounds were not considered effective or pursued for further analysis if there was no inhibition of tachyzoites at 1 μM. If compounds were effective at 1 μM, another experiment was performed to assess effect at 1 μM, 500, 250, 125, 62.5, and 31.25 nM.

[4] = test system: P. falciparum strains D6, TM91-C235, W2, C2B; assay: Malaria SYBR Green I-Based Fluorescence (MSF) assay; type: cell-based; conditions: Plasmodium falciparum
Method: Malaria potency testing in vitro was performed using 4 different P. falciparum strains, D6, TM91-C235, W2, and C2B. The D6 strain is a drug sensitive strain from Sierra Leone, the TM91-C235 strain is a multi-drug resistant strain from Thailand, the W2 strain is a chloroquine resistant strain from Thailand, and the C2B strain is a multi-drug resistant strain with resistance against atovaquone. These assays were performed as described below.
Compound activity against P. falciparum, was tested using the Malaria SYBR Green I–Based Fluorescence (MSF) Assay. The complete method for performing this microtiter assay is described in previous work published by Plouffe et al. ([2008]) and Johnson et al. ([2007]). In brief, this assay uses the binding of the fluorescent dye SYBR Green I to malaria DNA to measure parasite growth in the presence of 2-fold diluted experimental or control. The relative fluorescence of the intercalated SYBR Green I proportional to parasite growth, and inhibitory compounds will result in lower observed fluorescence compared to untreated parasites.

[5] = test system: T. gondii mitochondrial membrane potential; assay: T. gondii mitochondrial membrane potential, safranine method; type: cell-based, Toxoplasma gondii; conditions: doses as high as 4 μM
Method: The mitochondrial membrane potential was measured by the safranine method according to Vercesi et al. ([1998]). Freshly egressed T. gondii tachyzoites were filtered and washed twice with intracellular buffer (125 mM sucrose, 65 mM KCl, 10 mM HEPES-KOH buffer, pH 7.2, 1 mM MgCl2, and 2.5 mM potassium phosphate). After washing, the parasites were resuspended in the same buffer at 10^9/mL. An aliquot of 50 μL of this suspension was added to a cuvette containing Safranin O, 2.5 μM and Succinate 1 mM in final volume of 2 mL of the intracellular buffer. The fluorescence was measured with a Hitachi 7000 spectrofluorometer with settings Ex. 495/Em. 586. Once the baseline fluorescence was stable, 30 μM digitonin was added to permeabilize the parasites. Eighty five seconds after permeabilization, the THQ derivatives, dissolved in DMSO, were added. Five micromolars of FCCP (Carbonyl cyanide-4-(trifluoromethoxy) phenylhydrazone) was used as an uncoupler reference for calculations and its effect was considered 100%. We used similar conditions for measuring the mitochondrial membrane potential of mammalian cells with the following changes: the mammalian cells were resuspended at 10^8/mL. We also used 50 μL of this suspension for each experiment in a total volume of 2 mL. The substrate used for mammalian cells was 5 mM glutamate and 5 mM malate. A higher concentration of digitonin (50 μM) was used to permeabilize the mammalian cells. The compounds were added at ~400 s after permeabilization. Each experiment was repeated at least three times in duplicates. Statistical analysis, unpaired student t-test, was performed using GraphPad Prism 8.0 (GraphPad Software, Inc., San Diego, CA).
Mitochondrial membrane potential measurements were performed with permeabilized T. gondii tachyzoites in suspension using safranin O, which loads into polarized membranes [see section Materials and Methods in the Supplemental Materials (Vercesi et al., [1998])]. T. gondii tachyzoites were permeabilized with digitonin to allow the mitochondrial substrate succinate to cross the membrane and energize the mitochondrion. The fluorescence of safranin O, which loads into energized mitochondria was used to measure the membrane potential. The energized state of the mitochondrion is observed by a decrease in fluorescence (Figures 3A,C,E). Trifluoromethoxy carbonylcyanide phenylhydrazone (FCCP) was used to depolarize the membrane, which is observed as an increase in fluorescence (Figures 3A,B). JAG21 depolarized the membrane potential even at concentrations as low as 2 nM (Figures 3C,D). JAG21 and Atovaquone had similar effects on the mitochondrial membrane potential (Figure 3D). […]

[6] = C2B, multi-drug resistant strain with resistance against atovaquone, read-out: SYBR Green C2B IC50
[7] = D6, drug sensitive strain, read-out: SYBR Green D6 IC50
[8] = TM91-C235, multi-drug resistant strain, read-out: SYBR Green C235 IC50
[9] = W2, chloroquine resistant strain, read-out: SYBR Green W2 IC50

Compound | number of mice left at 42 ([1]; Experiment 1, 6 (Tafenoquine+JAG21)) | number of mice left at 37 ([1]; Experiment 2, 9 (Tafenoquine+JAG21)) | Toxicity [2] [µM] | pIC50 [3] | pIC50 [4, 6] | pIC50 [4, 7] | pIC50 [4, 8] | pIC50 [4, 9] | effect on mitochondrial membrane potential [5]
COc1cc(C)c2c(Oc3cccc(C(F)(F)F)c3)c(OC)cc(NC(C)CCCN)c2n1 (stereo not drawn) [TAF, tafenoquine, reference compound] | 1 | 2 |  |  |  |  |  |  | 
COc1ccc(Oc2ccc(-c3c(C)[nH]c4c(c3=O)CCCC4)cc2)cc1OC [AS033] |  |  | 5 |  |  |  |  |  | 
Cc1[nH]c2c(c(=O)c1-c1ccc(Oc3cccc(C(=O)O)c3)cc1)CCCC2 [JAG047] |  |  |  | < 5.00 | 5.11 | 5.43 | 4.90 | 5.04 | almost no effect
Cc1[nH]c2c(c(=O)c1-c1ccc(Oc3ccc(C(=O)O)cc3)cc1)CCCC2 [JAG046] |  |  |  | < 5.00 | < 4.70 | 5.17 | < 4.70 | < 4.70 | almost no effect

Source: article PMC7311950, “Potent Tetrahydroquinolone Eliminates Apicomplexan Parasites” (Frontiers in Cellular and Infection Microbiology, 2020)
